Among the test systems are ItL-03; ItL-01; ItL-02.
Holding throughout (details): 0.1 M acetate buffer pH 4, 25 °C, 30 min
Substrate in the data set “purified protein”: CCn1c(=NN=c2sc3cc(S(=O)(=O)O)ccc3n2CC)sc2cc(S(=O)(=O)O)ccc21
In words: purified protein. Format: biochemical, Escherichia coli.

What is called Km is the substrate concentration at which the rate is half of its maximum. Regarding `CCn1c(=NN=c2sc3cc(S(=O)(=O)O)ccc3n2CC)sc2cc(S(=O)(=O)O)ccc21` [ABTS, 2,2′-azino-bis(3-ethylbenzothiazoline-6-sulfonic acid)], the Michaelis-Menten constant (Km) stood at 7.76 mM with ItL-03, 4.5 ± 1.42 mM in the data set with ItL-01 and 3.64 ± 0.26 mM in the data set on ItL-02.

B1: CueO (Escherichia coli K-12) (protein)
chain: AERPTLPIPDLLTTDARNRIQLTIGAGQSTFGGKTATTWGYNGNLLGPAVKLQRGKAVTVDIYNQLTEETTLHWHGLEVPGEVDGGPQGIIPPGGKRSVTLNVDQPAATCWFHPHQHGKTGRQVAMGLAGLVVIEDDEILKLMLPKQWGIDDVPVIVQDKKFSADGQIDYQLDVMTAAVGWFGDTLLTNGAIYPQHAAPRGWLRLRLLNGCNARSLNFATSDNRPLYVIASDGGLLPEPVKVSELPVLMGERFEVLVEVNDNKPFDLVTLPVSQMGMAIAPFDKPHPVMRIQPIAISASGALPDTLSSLPALPSLEGLTVRKLQLSMDPMLDMMGMQMLMEKYGDQAMAGMDHSQMMGHMGHGNMNHMNHGGKFDFHHANKINGQAFDMNKPMFAAAKGQYERWVISGVGDMMLHPFHIHGTQFRILSENGKPPAAHRAGWKDTVKVEGNVSEVLVKFNHDAPKEHAYMAHCHLLEHEDTGMMLGFTV
notes: codon-optimised synthetic gene in pET21a(+), E. coli T7 Shuffle, Ni-NTA purified; 50-60 kDa
What is called kcat is the number of substrate molecules converted per active site and unit of time at saturation. As to B1, in the data set “purified protein”, the Km was found to be 2.39 ± 0.23 mM and the kcat was found to be 0.0045 ± 0.0005 s⁻¹.

Values taken from publication PMC12615385, “A combined chemo-enzymatic treatment for the oxidation of epoxy-based carbon fiber-reinforced polymers (CFRPs)” (Frontiers in Bioengineering and Biotechnology, 2025).
